Tests used:
[1] = human, in vivo
Text: In two-compartment modeling, there is a central compartment and a peripheral compartment. […] The peripheral compartment contains tissues, including fat and bone, which uptake the drug at a slower rate than the central compartment.
where c1 in [mcg·L^−1] is the drug concentration in the central compartment, c2 in [mcg·L^−1] is the drug concentration in the peripheral compartment, kel in [min^−1] is the elimination rate constant, k12 in [min^−1] is the rate constant of distribution from the central compartment to the peripheral compartment, k21 in [min^−1] is the rate constant of distribution from the peripheral compartment to the central compartment, V1 in [L] is the volume of distribution of the central or first compartment, and u in [mcg·min^−1] represents the input infusion rate of a drug into the system. The constants defined in this model correspond to mass flow rate constants, which are traditionally estimated from empirical PK studies. As such, the formulation of Eq. 1.3 represents the dynamics of drug concentrations in the body in terms of mass flow rate constants. […] This model is time-invariant.
The volume in the central compartment, given in 0.32±0.19 in [L·kg^−1], is converted to
[formula] in [L] by multiplying by 85.41 in [kg], the average weight of the patient cohort. The following values are also derived:
[formula] […] It should be appreciated again these empirical values are mass flow rate constants.
From these parameters, k12, k21, and kel can be derived using the following,

[2] = two-compartment model of NI; mean ± spread; cited from earlier work

Structure (SMILES): COC(=O)C1=C(C)NC(C)=C(C(=O)OCCN(C)Cc2ccccc2)C1c1cccc([N+](=O)[O-])c1 (stereo not drawn) [NI, nicardipine]
- k12, rate constant of distribution from the central compartment to the peripheral compartment [1]: ≈ 0.0183 min^−1
- k21, rate constant of distribution from the peripheral compartment to the central compartment [1]: ≈ 0.0019 min^−1
- kel, elimination rate constant [1]: ≈ 0.0223 min^−1
- V1, the volume of distribution in the central compartment [2]: 0.32 ± 0.19 L/kg
- t1/2α, the distribution half-life [2]: 0.278 ± 0.18 h
- t1/2β, the elimination half-life [2]: 11.49 ± 5.76 h
